For the assay, the target named is T1, dopamine D1 receptor (Rattus norvegicus, UniProt P18901).
T1 construct: homogenates from rat striatum; from tissue; host or cells: rat striatum homogenate
Briefly: Binding to dopamine D1 receptor in homogenates from rat striatum.

Where two headings read alike, the source gives them in different places.

T1 sequence (P18901 whole entry): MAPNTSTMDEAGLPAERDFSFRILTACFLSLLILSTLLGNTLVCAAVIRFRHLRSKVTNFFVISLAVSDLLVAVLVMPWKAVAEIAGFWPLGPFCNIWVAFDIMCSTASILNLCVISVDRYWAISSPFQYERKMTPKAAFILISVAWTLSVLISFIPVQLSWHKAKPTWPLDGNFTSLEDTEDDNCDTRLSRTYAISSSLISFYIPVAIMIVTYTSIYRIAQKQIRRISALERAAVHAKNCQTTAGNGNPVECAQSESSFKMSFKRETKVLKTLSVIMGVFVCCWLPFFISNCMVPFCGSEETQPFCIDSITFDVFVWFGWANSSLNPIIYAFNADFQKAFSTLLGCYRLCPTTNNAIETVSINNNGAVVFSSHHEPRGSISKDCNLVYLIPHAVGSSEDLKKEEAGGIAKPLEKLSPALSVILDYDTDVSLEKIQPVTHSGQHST

In general, IC50 refers to the midpoint of a concentration-inhibition curve. The compound `CN1CCc2cc(Cl)c(O)cc2C(c2cc(Br)cc3c2OCC3)C1` (single isomer, unassigned; (+)) [Example 1, (+) 8-Chloro-5-(5-bromo-2,3-dihydrobenzofuran-7-yl)-7-hydroxy-3-methyl-2,3,4,5-tetrahydro-1H-3-benzazepine] came in with a half-maximal inhibitory concentration (IC50) of 0.7 nM. Turning to `CN1CCc2cc(Cl)c(O)cc2C(c2c(Cl)c(Cl)cc3c2OCC3)C1` (single isomer, unassigned; (+)) [Example 3, (+)8-Chloro-5-(5,6-dichloro-2,3-dihydrobenzofuran-7-yl)-7-hydroxy-3-methyl-2,3,4,5-tetrahydro-1H-3-benzazepine], the IC50 (homogenates from rat striatum, read-out: IC50 (nM) Dopamine D1 receptor) came out at 0.9 nM.
